Here are results for nine compounds from patent US20210246455A1, “MULTIPLEX ASSAY” (priority 2017, published 2021).

For test [1], the system named is 53BP1 foci (DNA double strand breaks) in U2OS^A:Tox^DUPR reporter cells. The experiment in a line: 53BP1-mCerulean foci per nuclei in U2OS^A:Tox^DUPR reporter cells. It is filed as cell-based, human. The note with it: for number of 53BP1 foci per nuclei: exposed for 8 hr, compared to DMSO/vehicle. As to the method:
U2OS acceptor cells were co-transfected a construct containing the recombinase B×b1 and a mutlicistronic Tox reporter (named U2OS^A:Tox^DUPR) carrying three fluorescently labeled proteins: 53BP1-mCerulean that binds to DNA double strand breaks, H2B-mCherry and XBP1Δ-Venus which is a UPR stress related sensor. […] NCS inhibits DNA synthesis, G2 cycle arrest, apoptosis. […] Cells were plated in glass bottom well 384 well plates. To evaluate the specificity of the reporter, together with DNA inducers, three other compounds were used as controls. Thapsigargin, which induced UPR-related stress by inhibiting calcium uptake into ER (Ca^2+ is chaperone cofactor so protein folding is inhibited), tunicamycin that is also involved in UPR-related stress by inhibiting glycosylation of newly synthesized proteins, and aphidicolin which inhibits DNA replication in eukaryotes. All compounds were tested in tetraplicates in four ten-fold serial dilutions with data collection 8 hour after compound addition. Images were acquired in a Nikon Ti-E inverted Microscope equipped with motorized stage with autofocus and OkoLab stage top environmental control chamber (supplied with CO2 and temperature controlled for live cell imaging) (FIG. 11A).
The number of 53BP1-mCerulean was used as a metric for double strand breaks and DNA damage. For each assay, the images were analyzed using the open source software CellProfiler for quantification of the number of foci per nuclei and the data generated was further processed to determine compound EC50S.
Image analysis was conducted using the open source software CellProfiler. After importing the images, nuclei were identified from the H2B-mCherry images as primary objects, followed by enhancement of mCerulean structures, and detection of these enhanced structures as objects. The nuclei and the foci are related and the number of children (foci) per nuclei is counted. Data from CellProfiler was exported to Python programming language for further computation.
Using Python, the data was grouped by well and the average number of foci/nuclei determined. The wells that corresponded to the same conditions were grouped. All the data was exported to GraphPad Prism 7.0 software to generate plots. A non-linear regression was used to fit the data and to calculate the concentration where we observe 50% activity of the enhancer (EC50S) (FIG. 11B)

Test [2] has as its system Ras-MAPK pathway in HEK293 multicolor stable cell line expressing KRas(G12C), C-Raf, Mek and Erk reporters. The experiment in a line: Live-cell imaging of 4-color MAPK reporter cell line (reporter localization). Type of test: cell-based, human. The note with it: for CRaf localization / Erk localization / KRas localization: treated for four or nine hours, relative to control. How it is done: The two-color stable cell lines were plated in 96 well glass-bottom plates overnight and treated with doxycycline at 1 μg/m1 to induce fluorescent reporter expression. Cells were treated with different compounds for four or nine hours. Cells were imaged with an epifluorescence Nikon™microscope with an OKOLab™ incubator system and images were acquired using a Plan Fluor™40× objective and NIS-Elements® software (Nikon™). An analogous procedure, using N-terminal tagged KRas(G12C), CRaf, Mek and Erk cloned into the multicistronic construct, was used to generate monoclonal, inducible 4-color cell lines with approximately balanced reporter construct expression level (FIG. 4 and FIG. 5, control)
The 4-color lines were used to visualize the MAPK pathway in live cells. HEK293 multicolor stable cell line expressing KRas(G12C), C-Raf, Mek and Erk reporters show correct localization of the 4 proteins at the plasma membrane, plasma membrane and cytoplasm, cytoplasm, nucleus, respectively (FIG. 5). Monitoring of cells under the microscope allowed visualization of the response to Ras-MAPK pathway inhibitors. To monitor response to inhibitors, after protein induction cell were treated with: GDC-0879, FR180204, lovastatin and PD0325901 for four or nine hours.

Test [3] concerns MAPK pathway activation (mCherry-Erk nuclear localization) in U2OS MAPK R20 cells expressing K-Ras(G12C). The experiment in a line: MAPK reporter assay, nuclear versus cytoplasmic mCherry-Erk, U2OS MAPK R20. Type of test: cell-based. The note with it: Homo sapiens, read-out: IC50 (inhibition of nuclear localization of mCherry-Erk). As to the method: (§1) Three MAPK reporter cell lines were used to visualize the MAPK pathway in live cells and to analyze dose responses of MAPK inhibitors. U2OS MAPK R19, R20 and R21 multicolor stable cell line expressing mCerulean-CRaf, untagged Mek, mCherry-Erk and Venus-KRas (wt, G12C and G12D, respectively) were plated in glass bottom well 96 well plates. Twenty-four hours after plating cells were treated with doxycycline at 1 μg/ml for 5 h to induce fluorescent reporter expression. Monitoring of cells under the microscope allowed visualization of the response to Ras-MAPK pathway inhibitors. Two inhibitors, Trametinib an inhibitor of Mekl and […], inhibitor of Mek1/2 were used in the assay. […]
(§2) For each assay, the images were analyzed using CellProfiler (open source software for image analysis, Kamensty, L. et al., Bioinformatics (2011)) for quantification of the ratio of nuclear versus cytoplasmic Erk fluorescence intensity and the data generated was further processed to determine compound IC50S.
(§3) Image analysis used the open source software CellProfiler. […] The nuclear area of each cell was subtracted from the cytoplasm area to give the final cytoplasm mask. mCherry intensity for the nucleus and the cytoplasm of each cell was calculated from the original mCherry-Erk image and the nuclear to cytoplasm ratio of mCherry intensity was calculated per cell and exported as a HDFS file for analysis. […]

For test [4], the system named is MAPK pathway activation (mCherry-Erk nuclear localization) in U2OS MAPK R21 cells expressing K-Ras(G12D). Nature of the test: MAPK reporter assay, nuclear versus cytoplasmic mCherry-Erk, U2OS MAPK R21. Type of test: cell-based. The note with it: Homo sapiens, read-out: IC50 (inhibition of nuclear localization of mCherry-Erk). As to the method: as §1, §2, §3
(Reporter assays use an easily measured gene product as a stand-in for the process of interest.)

The subject of test [5] is MAPK pathway activation (mCherry-Erk nuclear localization) in U2OS MAPK R19 cells expressing K-Ras(wt). The experiment in a line: MAPK reporter assay, nuclear versus cytoplasmic mCherry-Erk, U2OS MAPK R19. Particulars: Homo sapiens, read-out: IC50 (inhibition of nuclear localization of mCherry-Erk). It is filed as cell-based. How it is done: as §1, §2, §3
Test [6] deals with MAPK signaling in cells expressing K-Ras(wt), K-Ras(G12C) and K-Ras(G12D). The experiment in a line: Imaging of mCherry-Erk localization in U2OS^A-Tet MAPK R19, R20 and R21 reporter cell lines. Type of test: cell-based, human. Particulars: exposed for 1 hr, compared to DMSO treated cells. As to the method: MAPK pathway inhibitors were tested for their ability to inhibit nuclear localization of mCherry-tagged ERK in three different cell lines expressing K-Ras wild type, K-Ras G12C or K-Ras G12D. To quantify these images we calculated the ratio of nuclear to cytoplasmic ERK in single cells for four images per sample and plotted the resulting values as a histogram.
as §1, §2

The test system of test [7] is 53BP1 foci in Tox^DUPR reporter cells pooled with Tox^ORG reporter cells. Nature of the test: Pooled assay, U2OS^A Tox^ORG and Tox^DUPR reporter cells mixed 1:1, 53BP1 foci per nuclei. Type of test: cell-based, human. How it is done: U2OS^A:Tox^DUPR and U2OS^A:Tox^ORG were combined in a pooled assay with an aggregate of […] biosensors and phenotypic readouts (MTS-Venus, H2B-TagBFP, mCherry-LC3, 53BP1-cerulean, XBP1-Venus and H2B-mCherry) where DNA is differently labeled in each of the two reporter cell lines (FIG. 13).
The two U2OS^A Tox^ORG and Tox^DUPR reporter cell lines were mixed 1:1 and plated in 384 well plates 24 h before compound addition. […] NCS inhibits DNA synthesis, G2 cycle arrest, apoptosis. Both compounds are inducers of DNA double strand breaks and consequently increase the number of 53BP1 nuclear foci. Eight hours post compound addition, images were acquired in a Nikon Ti-E inverted Microscope equipped with motorized stage with autofocus and OkoLab stage top environmental control chamber (supplied with CO2 and temperature controlled for live cell imaging) (FIG. 14).

“Also recorded” adds a separate entry of the source. Where two headings read alike, the source gives them in different places.

Turning to `C[C@@]1(CO)[C@H](O)CC[C@@]2(C)[C@H]1CC[C@H]1C[C@@H]3C[C@@]12CC[C@]3(O)CO` [aphidicolin], the “number of 53BP1 foci per nuclei” value in test [1] is “do not show any effect in the number of 53BP1 foci”.

`Nc1[nH]nc2nnc(-c3c(-c4ccccc4)nn4ccccc34)cc12` [FR180204]: in test [2], the CRaf localization entry is listed as “moderate increase of CRaf levels at the plasma membrane”.

Broadly, the IC50 is the concentration that gives 50% inhibition. Consider `CC(=O)Nc1cccc(-n2c(=O)n(C3CC3)c(=O)c3c(Nc4ccc(I)cc4F)n(C)c(=O)c(C)c32)c1` [Trametinib], for which the half-inhibitory concentration (IC50) in test [3] (cells expressing K-Ras(G12C), 1 hour after compound addition) was determined as 0.055 µM; in test [4] (cells expressing K-Ras(G12D), 1 hour after compound addition), 0.028 µM; in test [5] (cells expressing K-Ras(wt), 1 hour after compound addition), 0.009 µM.

As to `C/C=C(/C)C(=O)O[C@H]1C(C)=C2[C@H]([C@@H]1OC(=O)CCCCCCC)[C@@](C)(OC(C)=O)C[C@H](OC(=O)CCC)[C@@]1(O)[C@H]2OC(=O)[C@@]1(C)O` [thapsigargin, Thapsigargin], in test [1], the “number of 53BP1 foci per nuclei” value was “do not show any effect in the number of 53BP1 foci”.

For the compound `O=C(NOC[C@H](O)CO)c1ccc(F)c(F)c1Nc1ccc(I)cc1F` [PD 0329501], in test [2], the CRaf localization entry is “none of Mek upstream proteins (KRas and C-Raf) showed alteration in localization”; the Erk localization entry is reported as “redistribution of the downstream effector, Erk, from the nucleus to the cytoplasm”; the KRas localization result is “none of Mek upstream proteins (KRas and C-Raf) showed alteration in localization”. Moreover, the concentration for half-maximal inhibition (IC50) in test [3] (1 h) stood at 0.013 µM. Besides, the concentration for half-maximal inhibition (IC50) in test [4] (1 h) came out at 0.076 µM. Moreover, in test [5] (1 h), the IC50 amounted to 0.009 µM. Also, the mCherry-Erk localization entry in test [6] is recorded as “increase of mCherry-Erk at the cytoplasm”.

As to `CC[C@H](C)C(=O)O[C@H]1C[C@@H](C)C=C2C=C[C@H](C)[C@H](CC[C@@H]3C[C@@H](O)CC(=O)O3)[C@H]21` [Lovastatin], the “displacement of KRas from the cell membrane” value in test [2] (***p<0.0001) is recorded as “significant displacement of KRas from the cell membrane”. In test [2], the CRaf localization result was “C-Raf is not enriched at the membrane”, the Erk localization entry is given as “changes its localization to the cytoplasm” and the KRas localization result is listed as “absence of KRas at the membrane”.

In the case of `COc1cc([C@@H]2c3cc4c(cc3[C@@H](O[C@@H]3O[C@@H]5CO[C@@H](C)O[C@H]5[C@H](O)[C@H]3O)[C@H]3COC(=O)[C@H]23)OCO4)cc(OC)c1O` [Etoposide], the EC50 in test [1] (Homo sapiens, 8 hour after compound addition, read-out: EC50 (number of 53BP1 foci/nuclei)) was found to be 0.161 µM.

Take neocarzinostatin [NCS]: the “number of 53BP1 foci per nuclei” value in test [7] (pooled Tox^ORG and Tox^DUPR cells, 8 hr, compared to vehicle) is “increase in the number of foci/nuclei specifically in Tox^DUPR reporter cells; also recorded: increase in the number of foci per nuclei”; in test [1] it was “increase in the number of foci per nuclei”. Further, the “EC50 (number of 53BP1 foci/nuclei)” value in test [7] (pooled with other reporter cell lines (FIG. 14), eight hours post compound addition) is 376 µg/mL; in test [1] (8 hour after compound addition), 0.257 µg/mL; in test [1] (reporter cells assayed by itself (FIG. 11B)), 257 µg/mL.

Regarding tunicamycin, the “number of 53BP1 foci per nuclei” value in test [1] is “do not show any effect in the number of 53BP1 foci”.
